According to ChEMBL document CHEMBL1128876, “Nitrogen transfer in E. coli glucosamine-6P synthase. Investigations using substrate and bisubstrate analogs” (Bioorg Med Chem Lett, 1995):

Columns and labels:
[1] = Tested for inhibition of glucosamine-6P synthase; design: species or system Escherichia coli
[2] = Tested for inhibition of fructose-6P synthase

## O=C(O)C1CCC=N1 (racemic)
[1]
  Ki: 23000 nM

## NC(CC1CCC(=O)C2OC12)C(=O)O (centres undefined)
[1]
  Ki: 220 nM

## NC(CO)C(O)C(O)C(O)COP(=O)(O)O (centres undefined)
[2]
  Ki: 25 µM

## NC(=O)/C=C/C(=O)NCC(N)C(=O)O (centres undefined)
[1]
  Ki: 150 nM
